Assay results reported in ChEMBL document CHEMBL6177931, “Exploring diverse frontiers: Advancements of bioactive 4-aminoquinoline-based molecular hybrids in targeted therapeutics and beyond” (Eur J Med Chem, 2024).

Tests used:
HL-60 = assay: Cytotoxicity against human HL-60 cells assessed as reduction in cell viability incubated for 24 hrs by MTT assay; format: functional, cell-based; conditions: HL-60, 24 h
Jurkat E6.1 = assay: Cytotoxicity against human Jurkat E6.1 cells assessed as reduction in cell viability incubated for 24 hrs by MTT assay; format: functional, cell-based; conditions: Jurkat E6.1, 24 h
[1] = Inhibition of ConA-induced TNF-alpha secretion in female BALB/c mouse splenocyte incubated for 48 hrs by ELISA; format: functional, cell-based
[2] = Inhibition of ConA-induced IL-1beta secretion in female BALB/c mouse splenocyte incubated for 48 hrs by ELISA; format: functional, cell-based
[3] = Inhibition of ConA-induced IL-6 secretion in female BALB/c mouse splenocyte incubated for 48 hrs by ELISA; format: functional, cell-based
[4] = Cytotoxicity against human Huh-7 cells assessed as reduction in cell viability incubated for 2 days by MTT assay; format: toxicity, cell-based; conditions: time 2 day
HepG2 = assay: Antiproliferative activity against human HepG2 cells assessed as reduction in cell proliferation incubated for 24 hrs by MTT assay; format: functional, cell-based; conditions: HepG2, 24 h
Cholinesterase [5] = target: Cholinesterase (Homo sapiens, UniProt P06276); assay: Inhibition of human BChE
Sequence of Cholinesterase (Homo sapiens, UniProt P06276) (P06276 whole entry): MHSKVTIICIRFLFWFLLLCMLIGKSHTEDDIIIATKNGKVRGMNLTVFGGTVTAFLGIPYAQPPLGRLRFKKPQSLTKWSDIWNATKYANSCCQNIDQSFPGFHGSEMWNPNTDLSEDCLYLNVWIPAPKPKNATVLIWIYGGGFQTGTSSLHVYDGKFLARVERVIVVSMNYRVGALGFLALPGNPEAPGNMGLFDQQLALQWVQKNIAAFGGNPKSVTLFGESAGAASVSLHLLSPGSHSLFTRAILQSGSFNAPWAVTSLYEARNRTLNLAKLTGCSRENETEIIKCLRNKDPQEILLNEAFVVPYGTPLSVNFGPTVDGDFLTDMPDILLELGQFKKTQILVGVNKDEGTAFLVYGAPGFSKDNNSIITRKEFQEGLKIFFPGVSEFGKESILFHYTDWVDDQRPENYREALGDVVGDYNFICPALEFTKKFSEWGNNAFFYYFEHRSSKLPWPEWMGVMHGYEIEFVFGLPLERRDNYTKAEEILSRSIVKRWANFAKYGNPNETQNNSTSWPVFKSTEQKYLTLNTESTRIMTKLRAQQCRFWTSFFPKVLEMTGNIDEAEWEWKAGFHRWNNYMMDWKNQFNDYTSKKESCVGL

Acetylcholinesterase [6] = target: Acetylcholinesterase (Homo sapiens, UniProt P22303); assay: Inhibition of human erythrocyte AChE using acetylthiocholine as substrate preincubated for 5 mins followed by substrate addition by Ellman's reagent based spectrophotometric analysis
Sequence of Acetylcholinesterase (Homo sapiens, UniProt P22303) (P22303 whole entry): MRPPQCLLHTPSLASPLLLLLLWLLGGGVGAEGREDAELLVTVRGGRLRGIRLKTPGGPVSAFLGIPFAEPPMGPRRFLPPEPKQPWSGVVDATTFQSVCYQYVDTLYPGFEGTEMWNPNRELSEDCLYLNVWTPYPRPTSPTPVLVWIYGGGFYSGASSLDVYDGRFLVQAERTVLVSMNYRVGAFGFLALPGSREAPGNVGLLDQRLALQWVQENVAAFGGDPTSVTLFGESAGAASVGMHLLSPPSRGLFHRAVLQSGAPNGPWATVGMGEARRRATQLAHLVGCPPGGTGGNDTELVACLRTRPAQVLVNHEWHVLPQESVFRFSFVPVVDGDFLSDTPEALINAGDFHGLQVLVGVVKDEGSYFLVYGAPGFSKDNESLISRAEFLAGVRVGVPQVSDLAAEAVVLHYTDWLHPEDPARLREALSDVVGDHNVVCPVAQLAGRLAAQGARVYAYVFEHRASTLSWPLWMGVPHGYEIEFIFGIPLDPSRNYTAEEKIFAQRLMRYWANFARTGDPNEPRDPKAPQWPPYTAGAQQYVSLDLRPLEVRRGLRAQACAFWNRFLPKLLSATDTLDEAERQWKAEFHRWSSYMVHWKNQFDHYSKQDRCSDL

MCF7 = assay: Antiproliferative activity against human MCF7 cells; format: functional, cell-based
A549 = assay: Antiproliferative activity against human A549 cells; format: functional, cell-based
[7] = test system: Mycobacterium tuberculosis; assay: Antitubercular activity against Mycobacterium tuberculosis H37Rv assessed as inhibition of bacterial growth at 250 microg/ml relative to control; format: functional
[8] = Antiproliferative activity against human Caco-2 cells assessed as cell growth inhibition incubated for 72 hrs by MTT assay; format: toxicity, cell-based
[9] = Cytotoxicity against MDCK cells assessed as cell growth inhibition incubated for 72 hrs by MTT assay; format: toxicity, cell-based, Canis lupus familiaris; conditions: dog
Acetylcholinesterase [10] = target: Acetylcholinesterase (Electrophorus electricus, UniProt O42275); assay: Inhibition of electric eel AChE using […] as substrate preincubated for 10 mins followed by substrate addition and measured after 5 mins by Ellman's reagent based spectrophotometric analysis
Sequence of Acetylcholinesterase (Electrophorus electricus, UniProt O42275) (O42275 whole entry): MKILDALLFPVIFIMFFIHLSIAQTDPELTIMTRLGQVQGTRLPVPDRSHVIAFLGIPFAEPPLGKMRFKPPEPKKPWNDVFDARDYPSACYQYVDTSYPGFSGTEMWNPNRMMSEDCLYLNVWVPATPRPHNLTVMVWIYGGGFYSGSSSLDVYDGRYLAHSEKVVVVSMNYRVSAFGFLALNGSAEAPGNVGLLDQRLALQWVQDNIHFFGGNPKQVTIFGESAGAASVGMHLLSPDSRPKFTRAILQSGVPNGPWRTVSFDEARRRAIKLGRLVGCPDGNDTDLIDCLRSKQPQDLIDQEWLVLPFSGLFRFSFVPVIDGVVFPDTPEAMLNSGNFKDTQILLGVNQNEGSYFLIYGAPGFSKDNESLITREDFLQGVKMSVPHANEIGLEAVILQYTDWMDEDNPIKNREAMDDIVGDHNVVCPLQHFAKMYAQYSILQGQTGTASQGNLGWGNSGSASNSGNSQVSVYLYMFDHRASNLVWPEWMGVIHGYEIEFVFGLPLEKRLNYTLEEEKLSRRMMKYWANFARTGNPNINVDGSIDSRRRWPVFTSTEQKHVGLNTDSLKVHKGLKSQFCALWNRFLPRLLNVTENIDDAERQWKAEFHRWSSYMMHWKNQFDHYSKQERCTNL

Cholinesterase [11] = target: Cholinesterase (Equus caballus, UniProt P81908); assay: Inhibition of equine serum BChE using […] as substrate preincubated for 10 mins followed by substrate addition and measured after 5 mins by Ellman's reagent based spectrophotometric analysis
Sequence of Cholinesterase (Equus caballus, UniProt P81908) (P81908 whole entry): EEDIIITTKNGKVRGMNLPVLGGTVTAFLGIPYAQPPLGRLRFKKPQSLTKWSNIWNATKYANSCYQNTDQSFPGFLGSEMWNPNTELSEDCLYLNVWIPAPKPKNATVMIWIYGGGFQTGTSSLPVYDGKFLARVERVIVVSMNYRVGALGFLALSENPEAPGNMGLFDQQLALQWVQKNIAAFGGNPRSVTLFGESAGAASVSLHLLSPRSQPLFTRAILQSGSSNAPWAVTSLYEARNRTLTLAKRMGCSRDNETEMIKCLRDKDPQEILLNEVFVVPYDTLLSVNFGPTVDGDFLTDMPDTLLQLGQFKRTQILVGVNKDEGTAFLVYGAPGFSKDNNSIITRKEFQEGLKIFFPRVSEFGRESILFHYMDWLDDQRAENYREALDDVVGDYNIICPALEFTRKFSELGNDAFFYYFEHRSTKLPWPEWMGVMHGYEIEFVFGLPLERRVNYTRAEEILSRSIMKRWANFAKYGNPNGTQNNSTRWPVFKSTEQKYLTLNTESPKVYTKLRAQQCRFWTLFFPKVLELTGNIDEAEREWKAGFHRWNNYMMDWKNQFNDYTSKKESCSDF

[12] = Cytotoxicity against human A375P cells assessed as cell viability incubated for 72 hrs by alamar blue reagent based assay; format: functional

**Q.** Which IC50 (HL-60) does the source give for `COc1cc(/C=C/C(=O)c2cccc(Nc3ccnc4cc(Cl)ccc34)c2)cc(OC)c1OC` here?
**A.** 2150 nM

**Q.** And the IC50 (Jurkat E6.1)?
**A.** 1930 nM

**Q.** What does the source list for `COc1ccc(C2CC(c3cccc(Nc4ccnc5cc(Cl)ccc45)c3)=NN2)cc1OC` (stereo unspecified)?
**A.** IC50 (HL-60): 940 nM; IC50 (Jurkat E6.1): 3170 nM

**Q.** What does the source list for `CCN(CCCC(C)Nc1ccnc2cc(Cl)ccc12)CCNC(=O)C(F)(F)C1CCN(CCOCCOC)CC1` (stereo unspecified)?
**A.** IC50 [1]: 24400 nM; IC50 [2]: 1810 nM; IC50 [3]: 2520 nM; CC50 at 48 h [4]: 5750 nM

**Q.** With `Cc1ncsc1/C=N/NC(=O)c1ccc(Nc2ccnc3ccccc23)cc1` as the compound, how does the IC50 (HepG2) read?
**A.** > 80000 nM

**Q.** Which IC50 (Cholinesterase [5]) does the source give for `CC(C)(C)c1ccc(CNCCNc2c3c(nc4ccccc24)CCCCC3)c(C(C)(C)C)c1O` here?
**A.** 84 nM

**Q.** What about the IC50 (Acetylcholinesterase [6]) of the same compound?
**A.** 1900 nM

**Q.** For `C=CC1(O)c2ccccc2Nc2c1c(-n1ccnc1)nc1ccc(Br)cc21` (stereo unspecified), which IC50 (MCF7) is on record?
**A.** 540 nM

**Q.** And the IC50 (A549)?
**A.** 690 nM

**Q.** With `Clc1ccc(C2CC(c3ccc(Nc4ccnc5cc(Cl)ccc45)cc3)=NN2)cc1` (stereo unspecified) as the compound, how does the IC50 (HL-60) read?
**A.** 6170 nM

**Q.** What about the IC50 (Jurkat E6.1) of the same compound?
**A.** 6310 nM

**Q.** For `CO[C@H]1/C=C/O[C@@]2(C)Oc3c(C)c(O)c4c(O)c(c(/C=N/N5CCN(C)CC5)c(O)c4c3C2=O)NC(=O)/C(C)=C\C=C\[C@H](C)[C@H](O)[C@@H](C)[C@@H](O)[C@@H](C)[C@H](OC(C)=O)[C@@H]1C` [RIFAMPIN], which inhibition at 250 µg/mL [7] is on record?
**A.** 98%

**Q.** With `COc1ccc(/C=C/C(=O)c2ccc(Nc3ccnc4cc(Cl)ccc34)cc2)c(OC)c1` as the compound, how does the IC50 (HL-60) read?
**A.** 13500 nM

**Q.** And the IC50 (Jurkat E6.1)?
**A.** 10400 nM

**Q.** For `CCN(CCO)CCCC(C)Nc1ccnc2cc(Cl)ccc12` (stereo unspecified) [HYDROXYCHLOROQUINE], which IC50 [1] is on record?
**A.** 10000 nM

**Q.** And the IC50 [2]?
**A.** 3510 nM

**Q.** What about the IC50 [3] of the same compound?
**A.** 16500 nM

**Q.** With `Clc1ccc2c(N3CCN(c4ccc(-c5nc6ccccc6[nH]5)cc4)CC3)ccnc2c1` as the compound, how does the GI50 at 72 h [8] read?
**A.** > 100000 nM

**Q.** And the IC50 at 72 h [9]?
**A.** > 100000 nM

**Q.** With `O=C(NCCNc1ccnc2cc(Cl)ccc12)c1ccc(-c2nc3ccccc3[nH]2)cc1` as the compound, how does the GI50 at 72 h [8] read?
**A.** 16400 nM

**Q.** What about the IC50 at 72 h [9] of the same compound?
**A.** 100000 nM

**Q.** For `Oc1ccccc1CNCCNc1ccnc2cc(Cl)ccc12`, which IC50 (Acetylcholinesterase [10]) is on record?
**A.** 1970 nM

**Q.** What about the IC50 (Cholinesterase [11]) of the same compound?
**A.** 30300 nM

**Q.** For `Cc1ccc(S(=O)(=O)NCCCCNc2c3c(nc4ccccc24)CCCC3)cc1`, which IC50 (Cholinesterase [5]) is on record?
**A.** 131 nM

**Q.** With `Clc1ccc2c(Nc3cccc(-c4nc5ccccc5[nH]4)c3)ccnc2c1` as the compound, how does the GI50 at 72 h [8] read?
**A.** 1000 nM

**Q.** And the IC50 at 72 h [9]?
**A.** 20400 nM

**Q.** Which IC50 [12] does the source give for `CN(CCCCN(C)CCCNc1ccnc2cc(Cl)ccc12)CCCNc1ccnc2cc(Cl)ccc12` here?
**A.** 269 nM

**Q.** With `O=C(N/N=C/c1nc2ccccc2[nH]1)c1ccc(Nc2ccnc3ccccc23)cc1` as the compound, how does the IC50 (HepG2) read?
**A.** > 80000 nM

**Q.** Which IC50 [12] does the source give for `Clc1ccc2c(NCCCN(CCCCN(CCCNc3ccnc4cc(Cl)ccc34)Cc3ccccc3)Cc3ccccc3)ccnc2c1` here?
**A.** 269 nM

**Q.** For `Cc1ccc(CNCCCCCCNc2ccnc3cc(Cl)ccc23)c(O)c1`, which IC50 (Acetylcholinesterase [10]) is on record?
**A.** 260 nM

**Q.** What about the IC50 (Cholinesterase [11]) of the same compound?
**A.** 1580 nM

**Q.** With `CC(C)(C)c1ccc(/C=N/CCNc2c3c(nc4ccccc24)CCCCC3)c(C(C)(C)C)c1O` as the compound, how does the IC50 (Cholinesterase [5]) read?
**A.** 419 nM

**Q.** What about the IC50 (Acetylcholinesterase [6]) of the same compound?
**A.** 4030 nM

**Q.** Which IC50 (Acetylcholinesterase [10]) does the source give for `Oc1ccccc1/C=N/CCCCCCNc1ccnc2cc(Cl)ccc12` here?
**A.** 730 nM

**Q.** What about the IC50 (Cholinesterase [11]) of the same compound?
**A.** 58400 nM

**Q.** For `Cc1ccc(S(=O)(=O)NCCCCCNc2c3c(nc4ccccc24)CCCC3)cc1`, which IC50 (Cholinesterase [5]) is on record?
**A.** 68 nM

**Q.** And the IC50 (Acetylcholinesterase [6])?
**A.** 62 nM

**Q.** With `CCN(CCCC(C)Nc1ccnc2cc(Cl)ccc12)CCNC(=O)C(F)(F)C1CCN(CC(O)C(F)(F)F)CC1` (stereo unspecified) as the compound, how does the IC50 [1] read?
**A.** 15900 nM

**Q.** What about the IC50 [2] of the same compound?
**A.** 720 nM

**Q.** And the IC50 [3]?
**A.** 1600 nM

**Q.** What about the CC50 at 48 h [4] of the same compound?
**A.** 16700 nM

**Q.** With `CCN(CCCC(C)Nc1ccnc2cc(Cl)ccc12)CCNC(=O)C(F)(F)C1CCN(C(=O)C2OC(OC)C3OC(C)(C)OC23)CC1` (stereo unspecified) as the compound, how does the IC50 [1] read?
**A.** 4410 nM

**Q.** What about the IC50 [2] of the same compound?
**A.** 1190 nM

**Q.** What about the IC50 [3] of the same compound?
**A.** 1870 nM

**Q.** What about the CC50 at 48 h [4] of the same compound?
**A.** 16900 nM

**Q.** For `CC(=O)n1c2ccccc2c(=O)c2c(-n3ccnc3)nc3ccc(Br)cc3c21`, which IC50 (MCF7) is on record?
**A.** 620 nM

**Q.** And the IC50 (A549)?
**A.** 440 nM
